Data published in paper PMC8443647, “Hybrid derivative of cathelicidin and human beta defensin-2 against Gram-positive bacteria: A novel approach for the treatment of bacterial keratitis” (Scientific Reports, 2021).
Where “and” joins values, the source holds several entries; their conditions need not be identical. Identical values can stand only once. Like-named read-outs stand apart in the source and are kept apart here.

Key:
P. aeruginosa PAO1-L = test: microbe, parasite or virus in culture; assay type: cell-based; conditions: Pseudomonas aeruginosa, PAO1, 24 h, caMHB, 24 h, read-out: MIC
Text: (§1) A range of Gram-positive and Gram-negative laboratory- and clinical-strain bacteria were used for the experiments. These included laboratory-strain methicillin-sensitive S. aureus (MSSA; including SH1000 and ATCC SA29213), laboratory-strain MRSA (ATCC MRSA43300), clinical-strain MRSA (MRSA-OS; an IK isolate), laboratory-strain methicillin-sensitive Staphylococcus epidermidis (MSSE; ATCC SE12228), laboratory invasive-strain P. aeruginosa (PAO1-L), and clinical cytotoxic-strain P. aeruginosa (PA-OS; an IK isolate).
(§2) In vitro antimicrobial efficacy of the antibiotics and designed HDPs was determined using an established MIC assay with broth microdilution method approved by the Clinical and Laboratory Standards Institute (CLSI)[64]. Briefly, the microorganisms were cultured on Tryptone Soya Agar (TSA) and incubated overnight for 18–21 h at 37 °C. Bacterial inoculums were subsequently prepared using the direct colony suspension method. Three to five bacterial colonies were obtained from the agar plate and inoculated into an Eppendorf tube containing 1 ml of cation-adjusted Muller-Hinton broth (caMHB), consisting of 20–25 mg/L calcium ions (Ca^2+) and 10–12.5 mg/L magnesium ions (Mg^2+). The bacterial suspension was adjusted to achieve a turbidity equivalent to 0.1 OD600 or 0.5 MacFarland, containing ~ 1.5 × 10^8 colony-forming unit (CFU)/ml, which was then further diluted in 1:150 in caMHB to reach a final bacterial concentration of ~ 1 × 10^6 colony forming units (CFU)/ml. Each treatment (peptide or antibiotic) was prepared in 1:2 serial dilution in 96-well polypropylene microplates (with a final treatment volume of 50 μl per well), followed by the addition of 50 μl of 1 × 10^6 CFU/ml bacteria into each well (with a final bacterial concentration of 5 × 10^5 CFU/ml).

P. aeruginosa PA-OS = test: microbe, parasite or virus in culture; assay type: cell-based; conditions: Pseudomonas aeruginosa, 24 h, caMHB, read-out: MIC
Text: as §1, §2

in vitro = assay type: cell-based, human; conditions: human
Method: (§3) Cell viability and cytotoxicity of antibiotics and peptides were determined against human corneal epithelial cells (HCE-2, CRL-11135, ATCC, Manassas, Virginia, USA) using cell-counting-kit-8 (CCK-8) assay (Sigma Aldrich, Merck Life Science UK Limited, Dorset, UK) and lactate dehydrogenase (LDH) assay (ThermoFisher Scientific, UK), respectively, as per manufacturer’s guidelines. HCE-2 cells were cultured and seeded into a 96-well plate at a density of 7.5 × 10^3 cells/well and allowed to attach overnight and grew to 80–90% confluency in keratinocyte serum free medium (KSFM) supplemented with human recombinant epidermal growth factor, bovine pituitary extract, hydrocortisone, and insulin. Once the confluency reached 80–90%, the cells were incubated with treatment for 3 h before OD450 measurement was taken using BMG Clariostar microplate reader (BMG Labtech Ltd., Aylesbury, UK). Appropriate controls were used, including 0.1% Triton X-100 as positive control and KSFM as negative control. Cell viability was calculated using the following formula: [([…]) × 100; I = intensity] and cytotoxicity was calculated using the following formula: [((Itreatment – INC)/(IPC – INC)) × 100].

[1] = test system: human corneal epithelial cells (HCE-2); test: in vitro; assay type: cell-based; conditions: human, 3 h, 200 µg/ml
Method: as §3

S. aureus ATCC SA29213 = test: Multipassage antimicrobial resistance (AMR) assay; assay type: cell-based, Staphylococcus aureus
Method: Multipassage AMR assays were performed to evaluate the risk of development of AMR of S. aureus (ATCC SA29213) against CaD23 and amikacin over 10 consecutive passages (days). The assay was conducted in a similar manner of the MIC assay described above. […] This was then further diluted in 1:150 in caMHB to reach a final bacterial concentration of ~ 1 × 10^6 colony forming units (CFU)/ml. […] Development of AMR was defined as ≥ fourfold increase in the MIC level compared to the baseline.

S. aureus SH1000 = test: microbe, parasite or virus in culture; assay type: cell-based, Staphylococcus aureus; conditions: Staphylococcus aureus, SH1000, 24 h, caMHB, 24 h, read-out: MIC
Text: as §1, §2

MRSA-OS = test: microbe, parasite or virus in culture; assay type: cell-based, Staphylococcus aureus; conditions: caMHB, 24 h
Text: as §1, §2

[2] = test system: human corneal epithelial cells (HCE-2); test: cells; assay type: cell-based; conditions: 3 h; for IC50: Homo sapiens, Corneal epithelial cell, read-out: IC50 (concentration causing 50% inhibition of cell viability)
Method: as §3

S. aureus (SH1000) = test: Time-kill kinetics assay; assay type: cell-based, Staphylococcus aureus
Method: Time-kill kinetics assay was performed to determine the time-dependent and concentration-dependent in vitro antimicrobial effects of the CaD23 and amikacin, a commonly used topical antibiotics for BK, against 100 μl of ~ 1 × 10^6 CFU/ml of SH1000 (1:1 treatment-bacteria ratio) at various time points, including 0 min (pre-treatment), 15 min, 30 min, 60 min, 2 h, 4 h, and 24 h. At each time point, 10 μl of the treated bacteria was transferred to an Eppendorf tube containing 90 μl of PBS, which was then serially diluted in 1:10 concentration for inoculation on agar plates and incubated overnight for 18–21 h at 37 °C for enumeration of CFU.

Hemolytic assay = assay type: cell-based; conditions: human
Method: (§4) Ethical approval was obtained from the Local Research Ethics Committee of University of Nottingham prior to the experiment (Ref: 176-1812). The experiment was conducted in accordance with the relevant guidelines and regulations. Hemolytic assay was performed according to the previously established protocol. Briefly, 5 ml of fresh human blood was collected from healthy participants with written informed consent, in an EDTA tube and centrifuged for 10 min at 1300g at 10 °C for separation of plasma. The remaining erythrocytes were rinsed and centrifuged further three times in Ca^2+/Mg^2+ free Dulbecco’s phosphate-buffered saline (DPBS). Subsequently, erythrocytes were diluted to 8% v/v in DPBS and incubated with 100 μl of treatment, positive control (1% Triton X-100) and negative control (DPBS), all in 1:1 ratio, for 1 h (final erythrocytes concentration = 4% v/v). After 1 h of incubation, the plate was centrifuged at 500×g for 5 min and 100 μl of supernatant of each well was transferred into a 96-well plate for measurement at OD540. Hemolysis (%) was calculated as [(Itreatment – INC)/(IPC – INC)] × 100.

fresh human erythrocytes = test: Hemolytic assay; assay type: cell-based; conditions: 1 h
Method: as §4

S. aureus ATCC 29213 = test: Murine S. aureus keratitis model (in vivo efficacy); parameters: species or system Staphylococcus aureus; C57BL/6J mice; conditions: levofloxacin 0.5%
Method: Based on the in vivo safety data, the highest tolerable concentration of CaD23, 500 μg/ml (0.05%), was used in the subsequent S. aureus keratitis murine model. Levofloxacin 0.5%, a commonly used antibiotic for BK in clinical setting, and PBS were used as the positive and negative controls, respectively.
All mice were randomly allocated to each treatment group (n = 5 mice/group). Slit-lamp examination was performed before the start of experiment to confirm the health of corneas. […] 10 μl of ~ 1 × 10^8 CFU/ml of ATCC SA29213 was applied topically onto the cornea and the lid was held shut for 1 min. […] The eyes were monitored daily using slit-lamp biomicroscopy and photography. Ocular clinical scoring was adapted from a previous method described by Clemens et al.[52] with minor modifications: (a) 0: Clear cornea or minimal opacity, partially covering the pupil; (b) + 1: Mild opacity, partially/fully covering the pupil; (c) + 2: Dense opacity, partially covering the pupil; (d) + 3: Dense opacity fully covering the pupil; and (e) + 4: Corneal perforation or phthisis.
At the end of day 3, all animals were sacrificed, and the infected eyes were enucleated. The whole corneas were subsequently dissected and homogenized in 1 ml of sterile PBS using sterile glass micro-beads. The homogenised infected corneal tissue suspension was serially diluted in 1:10 and plated on TSA plates in triplicates for enumeration of CFU after 24 h incubation at 37 °C.

[3] = Staphylococcus aureus, MRSA, 0 mM NaCl, read-out: MIC

Structure (SMILES)	MIC (P. aeruginosa PAO1-L; 0 mM NaCl)	MIC (P. aeruginosa PAO1-L; 150 mM NaCl)	MIC (P. aeruginosa PA-OS; 0 mM NaCl)	MIC (P. aeruginosa PA-OS; 150 mM NaCl)	CC50 at 3 h (in vitro)	Lmax (%): percentage of cytotoxicity at 200 µg/ml [1]	MIC (S. aureus SH1000; 0 mM NaCl)	MIC (S. aureus SH1000; 150 mM NaCl)	MIC (MRSA-OS; 150 mM NaCl)	MIC (MRSA-OS; 150 mM NaCl, read-out: MIC)	MIC (MRSA-OS; [3])	HC50 (concentration causing 50% hemolysis) (fresh human erythrocytes)	other results
NCC[C@H](O)C(=O)N[C@@H]1C[C@H](N)[C@@H](O[C@H]2O[C@H](CN)[C@@H](O)[C@H](O)[C@H]2O)[C@H](O)[C@H]1O[C@H]1O[C@H](CO)[C@@H](O)[C@H](N)[C@H]1O [Amikacin, amikacin, reference compound]	0.63 µg/mL and 1.08 µM	1.25 µg/mL and 2.13 µM	0.63 µg/mL and 1.08 µM	1.25 µg/mL and 2.13 µM	> 200 µg/mL	0.0 (0.1) %	1.25 µg/mL and 2.13 µM	2.5 µg/mL and 4.27 µM	10 µg/mL	17.1 µM	10 µg/mL and 17.1 µM	> 200 µg/mL	Increase in the MIC after the 2nd passage (S. aureus ATCC SA29213; 2nd passage): fourfold; Increase in the MIC after the 10th passage (S. aureus ATCC SA29213; 10 consecutive passages (days)): 32 fold; Development of AMR after 10 consecutive passages (S. aureus ATCC SA29213; AMR defined as ≥ fourfold increase in MIC vs baseline): developed significant AMR; IC50 [2]: > 200 µg/mL; Bacterial re-growth at 24 h time-point (S. aureus (SH1000); CaD23 25 μg/ml, amikacin 10 μg/ml and 25 μg/ml): no evidence of bacterial re-growth; Time to complete killing (S. aureus (SH1000); amikacin 20 μg/ml (8× MIC), caMHB with 150 mM NaCl): ≤ 4 h; Speed of killing relative to CaD23 (times slower) (S. aureus (SH1000); amikacin 25 μg/ml (20× MIC) vs CaD23 25 μg/ml (2× MIC)): 8 times; Time to complete killing (S. aureus (SH1000); amikacin 8× MIC (10 μg/ml), caMHB): ≤ 4 h; hemolysis at 1 h, 200 µg/ml (Hemolytic assay; fresh human erythrocytes (4% v/v), human erythrocytes, 200 µg/ml, 1 h, mean (SD), read-out: Hmax (%): percentage of hemolysis at 200 µg/ml): 0%
C[C@H]1COc2c(N3CCN(C)CC3)c(F)cc3c(=O)c(C(=O)O)cn1c23 [Levofloxacin, levofloxacin, reference compound]	0.31 µg/mL and 0.86 µM	0.31 µg/mL and 0.86 µM	0.31 µg/mL and 0.86 µM	0.31 µg/mL and 0.86 µM	> 200 µg/mL	1.2 (0.7) %	0.31 µg/mL and 0.86 µM	0.31 µg/mL and 0.86 µM	0.31 µg/mL	0.86 µM	0.31 µg/mL and 0.86 µM	> 200 µg/mL	Imax (%): percentage of inhibition of cell viability at 200 µg/ml ([2]; HCE-2, CCK-8 assay, 200 µg/ml, mean (SD)): 108.0 (2.8) %; IC50 ([2]; HCE-2, CCK-8 assay, mean (SD)): > 200 µg/mL; S. aureus bacterial viability (S. aureus ATCC 29213; CaD23 0.05%, after 3 days of treatment, median ± IQR): 2.4 ± 2.2 log10 CFU/ml; Reduction of S. aureus bacterial viability compared to PBS group (S. aureus ATCC 29213; CaD23 0.05%, topical 4 times a day for 3 days, median): 98%; Ocular clinical scoring (S. aureus ATCC 29213; day 3 post-treatment, CaD23 0.05%, scale 0 to +4): 1.0 ± 0.71; Median reduction in the bacterial bioburden compared to the PBS group (S. aureus ATCC 29213): 1.8 logCFU; hemolysis at 1 h, 200 µg/ml (Hemolytic assay; Hmax (%): percentage of hemolysis at 200 µg/ml): 0%
